In ChEMBL document CHEMBL1154937, “Radiosynthesis of novel carbon-11-labeled triaryl ligands for cannabinoid-type 2 receptor” (Bioorg Med Chem Lett, 2010):

Legend:
Cannabinoid receptor 2 [1] = target: Cannabinoid receptor 2 (Homo sapiens, UniProt P34972); assay: Binding affinity to human CB2 receptor
Blood [2] = assay: Drug uptake in […] blood at 8 MBq/200 mL, iv after 5 mins; type: ADME, organism-based; conditions: in vivo
Brain [3] = assay: Drug uptake in […] brain at 8 MBq/200 mL, iv after 60 mins; type: ADME, organism-based; conditions: in vivo, 1 h
Blood [4] = assay: Drug uptake in […] blood at 8 MBq/200 mL, iv after 15 mins; type: ADME, organism-based; conditions: in vivo, 0.25 h
Blood [5] = assay: Drug uptake in […] blood at 8 MBq/200 mL, iv after 1 min; type: ADME, organism-based; conditions: in vivo
Brain [6] = assay: Drug uptake in […] brain at 8 MBq/200 mL, iv after 30 mins; type: ADME, organism-based; conditions: in vivo, 0.5 h
Cannabinoid receptor 2 [7] = target: T1, Cannabinoid receptor 2 (Rattus norvegicus, UniProt Q9QZN9); assay: Binding affinity to rat brain CB2 receptor
T1 sequence (Q9QZN9 whole entry): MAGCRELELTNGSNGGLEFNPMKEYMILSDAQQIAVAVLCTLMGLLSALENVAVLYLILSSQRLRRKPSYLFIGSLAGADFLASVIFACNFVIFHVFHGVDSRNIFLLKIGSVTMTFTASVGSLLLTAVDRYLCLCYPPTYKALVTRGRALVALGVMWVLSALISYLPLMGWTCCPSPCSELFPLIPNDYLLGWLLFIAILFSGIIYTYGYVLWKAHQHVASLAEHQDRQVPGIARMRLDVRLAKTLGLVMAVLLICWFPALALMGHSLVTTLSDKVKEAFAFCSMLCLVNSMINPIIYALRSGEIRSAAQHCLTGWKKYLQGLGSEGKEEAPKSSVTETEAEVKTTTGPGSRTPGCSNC

Brain [8] = assay: Drug uptake in […] brain at 8 MBq/200 mL, iv after 1 min; type: ADME, organism-based; conditions: in vivo
Brain [9] = assay: Drug uptake in […] brain at 8 MBq/200 mL, iv after 5 mins; type: ADME, organism-based; conditions: in vivo
Blood [10] = assay: Drug uptake in […] blood at 8 MBq/200 mL, iv after 30 mins; type: ADME, organism-based; conditions: in vivo, 0.5 h
Blood [11] = assay: Drug uptake in […] blood at 8 MBq/200 mL, iv after 60 mins; type: ADME, organism-based; conditions: in vivo, 1 h
Brain [12] = assay: Drug uptake in […] brain at 8 MBq/200 mL, iv after 15 mins; type: ADME, organism-based; conditions: in vivo, 0.25 h
Cannabinoid receptor 1 = Cannabinoid receptor 1 (Homo sapiens, UniProt P21554); assay: Binding affinity to CB1 receptor
Chain of Cannabinoid receptor 1 (P21554 whole entry): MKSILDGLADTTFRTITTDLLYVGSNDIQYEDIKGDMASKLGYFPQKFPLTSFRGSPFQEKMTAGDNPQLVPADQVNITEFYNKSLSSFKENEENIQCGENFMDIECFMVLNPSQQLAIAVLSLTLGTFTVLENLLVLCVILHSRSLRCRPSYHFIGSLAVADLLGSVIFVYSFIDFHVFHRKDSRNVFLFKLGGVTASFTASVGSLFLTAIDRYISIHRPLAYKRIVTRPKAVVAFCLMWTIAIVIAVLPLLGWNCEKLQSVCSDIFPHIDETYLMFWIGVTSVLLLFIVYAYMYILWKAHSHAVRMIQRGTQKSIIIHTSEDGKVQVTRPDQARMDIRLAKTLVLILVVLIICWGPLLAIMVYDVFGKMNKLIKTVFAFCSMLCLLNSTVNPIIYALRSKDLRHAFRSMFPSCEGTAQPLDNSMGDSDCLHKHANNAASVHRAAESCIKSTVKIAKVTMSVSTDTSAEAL

Chain of Cannabinoid receptor 2 (Homo sapiens, UniProt P34972) (P34972 whole entry): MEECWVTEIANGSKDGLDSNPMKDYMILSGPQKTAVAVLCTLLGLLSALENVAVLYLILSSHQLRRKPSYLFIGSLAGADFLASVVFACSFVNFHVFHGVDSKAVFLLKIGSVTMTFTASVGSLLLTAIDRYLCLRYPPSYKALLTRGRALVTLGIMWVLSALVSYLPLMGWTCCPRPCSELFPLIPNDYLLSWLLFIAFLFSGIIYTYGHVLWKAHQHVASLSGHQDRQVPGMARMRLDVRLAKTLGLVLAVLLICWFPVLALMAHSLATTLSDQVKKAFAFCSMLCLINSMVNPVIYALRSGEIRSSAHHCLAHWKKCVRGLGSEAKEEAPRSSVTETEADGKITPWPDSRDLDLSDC

Drug uptake (Blood [2]) [%] | Drug uptake (Brain [3]) [%] | Drug uptake (Blood [4]) [%] | Drug uptake (Blood [5]) [%] | Drug uptake (Brain [6]) [%] | Drug uptake (Brain [8]) [%] | Drug uptake (Brain [9]) [%] | Drug uptake (Blood [10]) [%] | Drug uptake (Blood [11]) [%] | Drug uptake (Brain [12]) [%] | Ki (Cannabinoid receptor 1) [nM] | SMILES | Ki (Cannabinoid receptor 2 [1]) [nM] | Ki (Cannabinoid receptor 2 [7]) [nM]
– | – | – | – | – | – | – | – | – | – | – | CCCCOc1c(O[11CH3])ccc2cc(C(=O)NC3CCCCC3)c(=O)[nH]c12 | 9.6 | –
– | – | – | – | – | – | – | – | – | – | – | CCCCOc1c(OCC[18F])ccc2cc(C(=O)NC3CCCCC3)c(=O)[nH]c12 | 35.8 | –
– | – | – | – | – | – | – | – | – | – | – | COc1ccc(S(=O)(=O)c2ccc(C(C)NS(C)(=O)=O)cc2)c(S(=O)(=O)c2ccc(O[11CH3])cc2)c1 (stereo unspecified) | 4.5 | –
2.12 | 0.65 | 2.25 | 3.9 | 1.09 | 1.93 | 1.87 | 2.38 | 2.27 | 1.5 | – | COc1cc(C(O)c2cccs2)cc(O[11CH3])c1-c1cc(Cl)cc(Cl)c1 (stereo unspecified) | – | 0.27
1.18 | 0.45 | 0.7 | 2.2 | 0.96 | 1.94 | 2.07 | 0.35 | 0.37 | 1.77 | – | [11CH3]Oc1cc(C(O)c2cccs2)cc(O)c1-c1cc(Cl)cc(Cl)c1 (stereo unspecified) | – | –
– | – | – | – | – | – | – | – | – | – | > 1000 | COc1cc(C(O)c2cccs2)cc(OC)c1-c1cc(Cl)cc(Cl)c1 (stereo unspecified) | – | –
2.93 | 0.62 | 3.45 | 2.71 | 0.85 | 1.2 | 1.29 | 3.42 | 3.38 | 1.1 | – | COc1cc(C(=O)c2cccs2)cc(O[11CH3])c1-c1cc(Cl)cc(Cl)c1 | – | –

SMILES | Drug uptake (Blood [2]) [%] | Drug uptake (Brain [3]) [%] | Drug uptake (Blood [4]) [%] | Drug uptake (Blood [5]) [%] | Drug uptake (Brain [6]) [%] | Drug uptake (Brain [8]) [%] | Drug uptake (Brain [9]) [%] | Drug uptake (Blood [10]) [%] | Drug uptake (Blood [11]) [%] | Drug uptake (Brain [12]) [%] | Ki (Cannabinoid receptor 1) [nM] | Ki (Cannabinoid receptor 2 [1]) [nM] | Ki (Cannabinoid receptor 2 [7]) [nM]
[11CH3]Oc1cc(C(=O)c2cccs2)cc(O)c1-c1cc(Cl)cc(Cl)c1 | 1 | 0.18 | 0.63 | 1.56 | 0.56 | 1.54 | 1.63 | 0.36 | 0.21 | 1.01 | – | – | 2.32
